Laboratory results: the supplement of paper PMC11061612

Columns and labels:
Assay in all cases: combination Emax (second highest fraction inhibited in the dose matrix, 72 h); higher = more inhibition; extreme values may be limits of the assay
[1] = tested on: 639-V (Bladder Carcinoma)
Outline: (§1)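 Bliss excess equals the observed combination effect minus the expected value EA + EB − EA·EB, where EA and EB are the effects of each agent alone. Combination Emax is the second-highest inhibition within the matrix. Inhibition was scaled from CellTiter-Glo 2.0 luminescence, with 0 set by vehicle wells and 1 by blank wells, after 72 hours of two-drug dosing of cells plated in 1536-well plates.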

[2] = tested on: 8305C (Thyroid Gland Carcinoma)
Outline: as §1

[3] = tested on: CAL-51 (Breast Carcinoma)
Outline: as §1

[4] = tested on: CAL-54 (Kidney Carcinoma)
Outline: as §1

COLO-829 (Melanoma) = tested on: COLO-829 (Melanoma)
Outline: as §1

[5] = tested on: CTB-1 (B-Cell Non-Hodgkin's Lymphoma)
Outline: as §1

HMV-II (Melanoma) = tested on: HMV-II (Melanoma)
Outline: as §1

[6] = tested on: Hs-633T (Other Solid Carcinomas)
Outline: as §1

[7] = tested on: KARPAS-231 (B-Cell Non-Hodgkin's Lymphoma)
Outline: as §1

[8] = tested on: LU-139 (Small Cell Lung Carcinoma)
Outline: as §1

Mewo (Melanoma) = tested on: Mewo (Melanoma)
Outline: as §1

NCI-H2461 (Mesothelioma) = tested on: NCI-H2461 (Mesothelioma)
Outline: as §1

[9] = tested on: NCI-H747 (Colorectal Carcinoma)
Outline: as §1

[10] = tested on: PCI-30 (Head and Neck Carcinoma)
Outline: as §1

[11] = tested on: RPMI-6666 (Non-Cancerous)
Outline: as §1

[12] = tested on: RT-112 (Bladder Carcinoma)
Outline: as §1

[13] = tested on: SU-DHL-6 (B-Cell Non-Hodgkin's Lymphoma)
Outline: as §1

[14] = tested on: SW1116 (Colorectal Carcinoma)
Outline: as §1

[15] = tested on: TE-4 (Esophageal Squamous Cell Carcinoma)
Outline: as §1

[16] = tested on: UMC-11 (Other Solid Carcinomas)
Outline: as §1

SMILES | combination Emax [1] | combination Emax [2] | combination Emax [3] | combination Emax [4] | combination Emax (COLO-829 (Melanoma)) | combination Emax [5] | combination Emax (HMV-II (Melanoma)) | combination Emax [6] | combination Emax [7] | combination Emax [8] | combination Emax (Mewo (Melanoma)) | combination Emax (NCI-H2461 (Mesothelioma)) | combination Emax [9] | combination Emax [10] | combination Emax [11] | combination Emax [12] | combination Emax [13] | combination Emax [14] | combination Emax [15] | combination Emax [16]
Cc1cc2ncnn2cc1Nc1ncc2c(n1)n(C1CCOCC1)c(=O)n2C [AZD7648] + CCN(CCO)CCCOc1ccc2c(Nc3cc(CC(=O)Nc4cccc(F)c4)[nH]n3)ncnc2c1 [AZD2811] (first compound max 10 µM, 7x7, partner max 1 µM) | 0.278 | 0.451 | 0.446 | 0.443 | 0.196 | 0.697 | 0.37 | 0.431 | 0.517 | 0.397 | 0.259 | 0.468 | 0.306 | 0.318 | 0.584 | 0.49 | 0.51 | 0.249 | 0.137 | 0.701
COc1cccc(OCCCN)c1-c1cc(Nc2cnc(C#N)cn2)n[nH]1 [Prexasertib] + O=C(c1cc(Cc2n[nH]c(=O)c3ccccc23)ccc1F)N1CCN(C(=O)C2CC2)CC1 [Olaparib] (first compound max 1 µM, 7x7, partner max 10 µM) | 0.868 | 0.785 | 0.86 | 0.792 | 0.281 | 0.876 | 0.533 | 0.854 | 0.974 | 0.442 | 0.505 | 0.652 | 0.422 | 0.548 | 0.959 | 0.797 | 0.653 | 0.565 | 0.654 | 0.902
CC1(C)CCC(CN2CCN(c3ccc(C(=O)NS(=O)(=O)c4ccc(NCC5CCOCC5)c([N+](=O)[O-])c4)c(Oc4cnc5[nH]ccc5c4)c3)CC2)=C(c2ccc(Cl)cc2)C1 [Venetoclax] + COc1cc(Nc2ncc3c(n2)-c2ccc(Cl)cc2C(c2c(F)cccc2OC)=NC3)ccc1C(=O)O [Alisertib] (first compound max 1 µM, 7x7, partner max 10 µM) | 0.752 | 0.627 | 0.574 | 0.523 | 0.252 | 0.75 | 0.363 | 0.44 | 1 | 0.738 | 0.416 | 0.459 | 0.419 | 0.218 | 0.967 | 0.673 | 0.96 | 0.341 | 0.194 | 0.798
Cc1c2c(nn1C)CSCc1cc(n(C)n1)CSc1cc(c3ccccc3c1)OCCCc1c(C(=O)O)n(C)c3c-2c(Cl)ccc13 [AZD5991] + C[C@@H]1COCCN1C2=NC(=NC(=C2)C3(CC3)[S@](=N)(=O)C)C4=C5C=CNC5=NC=C4 [AZD6738] (first compound max 1 µM, 7x7, partner max 10 µM) | 0.452 | 0.593 | 0.899 | 0.706 | 0.532 | 0.785 | 0.424 | 0.938 | 1 | 0.446 | 0.59 | 0.765 | 0.322 | 0.603 | 0.889 | 0.958 | 1 | 0.281 | 0.773 | 0.828
CC(=O)Nc1cccc(-n2c(=O)n(C3CC3)c(=O)c3c(Nc4ccc(I)cc4F)n(C)c(=O)c(C)c32)c1 [Trametinib] + Cc1nc(-c2cn3c(n2)-c2ccc(-c4cnn(C(C)(C)C(N)=O)c4)cc2OCC3)n(C(C)C)n1 [Taselisib] (first compound max 1 µM, 7x7, partner max 10 µM) | 0.718 | 0.945 | 0.886 | 0.763 | 0.942 | 0.416 | 0.926 | 0.917 | 0.149 | 0.143 | 0.692 | 0.587 | 0.952 | 0.627 | 0.675 | 0.884 | 1 | 0.866 | 1 | 0.355
Cc1c2c(nn1C)CSCc1cc(n(C)n1)CSc1cc(c3ccccc3c1)OCCCc1c(C(=O)O)n(C)c3c-2c(Cl)ccc13 [AZD5991] + CC1(C)CCC(CN2CCN(c3ccc(C(=O)NS(=O)(=O)c4ccc(NCC5CCOCC5)c([N+](=O)[O-])c4)c(Oc4cnc5[nH]ccc5c4)c3)CC2)=C(c2ccc(Cl)cc2)C1 [Venetoclax] (first compound max 1 µM, 7x7, partner max 1 µM) | 0.194 | 0.379 | 0.521 | 0.163 | 0.213 | 0.17 | 0.151 | 0.231 | 1 | 0.777 | 0.653 | 0.181 | 0.196 | 0.218 | 0.911 | 0.99 | 1 | 0.145 | 0.261 | 0.821
